Tests used:
TRAC locus = test: Genomic editing of the TRAC locus in primary human CD3+ T cells by RNP electroporation (NGS: % indels, % frameshift edits, indel pattern); type: cell-based; conditions: dgRNA/Cas9 RNP by electroporation, target TRAC; for mean FS edit (%): frameshift edits in primary human CD3+ T cells; for mean total % edit: primary human CD3+ T cells, mean of at least 3 experiments;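 as to all read-outs here: total edit is the insertion or deletion frequency at TRAC, and the frameshift value is the share of those indels that shift the coding frame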
Text: (§1) FIG. 12: Mean (n≥3) editing of CRISPR systems with dgRNAs as indicated to TRAC in HEK cells (stably expressing Cas9) or primary human CD3+ T cells (delivery of dgRNA:Cas9 RNP by electroporation).
FIG. 33C: Genomic editing of the TRAC locus resulting from human primary T cell electroporation with RNP containing the indicated gRNA targeting the TRAC locus is shown. The frequency of insertions or deletions is indicated (% indels) and the percentage of these edits that result in frameshifting of the coding sequence is shown (% frameshift edits).
Data for each experiment are the average from triplicate PCR products.

TRAC = test: Editing of TRAC by dgRNAs in HEK cells stably expressing Cas9 (NGS); type: cell-based, human; conditions: dgRNA delivered to HEK cells stably expressing Cas9, target TRAC, mean of at least 3 experiments
Text: as §1

Row | Sequence | mean FS edit (%) (TRAC locus) | mean total % edit (TRAC locus) [%] | mean % edit (TRAC) [%]
1 | GCUUUCACCUCCUUGGGGGU (chemistry not given here; listed as Homo sapiens) [CR001008] | 4.5 | 5.1 | 13.6
2 | GGAAACACACCUCUUGUCUU (chemistry not given here; listed as Homo sapiens) [CR000953] | 14.4 | 17.7 | 66.0
3 | GGUGUCAUAUGUGCAGCUCA (chemistry not given here; listed as Homo sapiens) [CR000938] | 12.5 | 13.9 | 55.0
4 | GUAGCAGCUUUCACCUCCUU (chemistry not given here; listed as Homo sapiens) [CR001011] | 10.8 | 13.2 | 64.8
5 | GUAGGAGAGUUCCCUCUGUU (chemistry not given here; listed as Homo sapiens) [CR001006] | 10.4 | 13.6 | 56.8
6 | UAAACCCGGCCACUUUCAGG (chemistry not given here; listed as Homo sapiens) [CR000990] | 25.3 | 36.1 | 63.7
7 | UAAAUAAUAAUCACUCUCAC (chemistry not given here; listed as Homo sapiens) [CR000940] | 14.4 | 22.1 | 55.0
8 | UAGCAGCUUUCACCUCCUUG (chemistry not given here; listed as Homo sapiens) [CR001010] | 18.6 | 21.2 | 48.3
9 | UAGGCAGACAGACUUGUCAC (chemistry not given here; listed as Homo sapiens) [CR000963] | 25.3 | 32.5 | 68.4
10 | UAUUCUUGUGCUCUCAGAGA (chemistry not given here; listed as Homo sapiens) [CR000952] | 5.6 | 5.8 | 57.9
11 | UCAAGGCCCCUCACCUCAGC (chemistry not given here; listed as Homo sapiens) [CR000995] | 2.5 | 1.9 | 23.2
12 | UCCUCCUCCUGAAAGUGGCC (chemistry not given here; listed as Homo sapiens) [CR000988] | 17.4 | 22.3 | 41.9
13 | UCUGUUGCUUAUAAGCUUCU (chemistry not given here; listed as Homo sapiens) [CR000946] | 9.2 | 9.8 | 65.9
14 | UGCUCACAGGUCCCUGCUGC (chemistry not given here; listed as Homo sapiens) [CR000925] | 12.3 | 19.1 | 56.9
15 | UGCUCAUGACGCUGCGGCUG (chemistry not given here; listed as Homo sapiens) [CR000994] | 10.8 | 21.5 | 46.9
16 | UGGUGUCAUAUGUGCAGCUC (chemistry not given here; listed as Homo sapiens) [CR000939] | 12.1 | 13.5 | 27.7
17 | UUCAAAACCUGUCAGUGAUU (chemistry not given here; listed as Homo sapiens) [CR000983] | 18.2 | 26.6 | 59.8
18 | UUGCCGGGGGGGCACAGAGG (chemistry not given here; listed as Homo sapiens) [CR001013] | 17.6 | 19.6 | 29.7
19 | UUUCAAAACCUGUCAGUGAU (chemistry not given here; listed as Homo sapiens) [CR000982] | 23.2 | 28.5 | 48.1
